Columns and labels:
EMT6 tumors = test: EMT6 mouse mammary carcinoma syngeneic model; type: in vivo; conditions: EMT6; venetoclax 50 mg/kg daily for 14 days
Method: (§1) All experiments were conducted in compliance with the National Institutes of Health Guide for Care and Use of Laboratory Animals guidelines in a facility accredited by the Association for the Assessment and Accreditation of Laboratory Animal Care (AAALAC). BALB/c, C57BL/6, CB6F1 (C57BL/6 bred with BALB/c) and SCID mice were obtained from Charles River (Wilmington, Mass.). SCID mice have severe combined immune deficiency (SCID) and are characterized by an absence of functional T- and B-cells.
EMT6, mouse mammary carcinoma and CT26, mouse colon carcinoma, cell lines were obtained from ATCC (Manassas, Va.). MC38, mouse colon carcinoma cell line was obtained from National Cancer Institute (NCI).
Compound (I),venetoclax, was formulated in 10% ethanol+30% PEG 400+60% Phosal® 50PG. Venetoclax was administered orally once a day for 14 days at 50 mg/kg/day.
1×10^5 CT26, EMT6 or MC38 cells were subcutaneously injected with Matrigel into the flanks of BALB/c, CB6F1 or C57BL/6 mice, respectively. Seven days later, mice were randomized to treatment groups of vehicle, venetoclax, anti-PD-1/PD-L1 or the combination of venetoclax and anti-PD-1/PD-L1. Tumor volume was determined via measurements of the length (L) and width (W) of the tumor with electronic calipers and the volume was calculated according to the following equation: V=L×W2/2 using Study Director Version 2.1.11 (Studylog Systems Inc., South San Francisco). Complete response (CR) was defined as reduction in tumor volume to ≤25 mm^3 over at least 3 successive measurements.

[1] = test system: CT26, MC38 and EMT6 cells; test: In vitro sensitivity of CT26, EMT6 and MC38 cells (FIG. 1); type: cell-based, mouse; conditions: increasing doses, CellTiter-Glo after 72 hours
Method: FIG. 1: In vitro sensitivity of CT26, EMT6 and MC38 cells to Compound (I). […] CT26, MC38 and EMT6 cells were incubated with increasing doses of Compound (I) and viability was measured using CellTiter®-Glo (Promega) after 72 hours as described in Example 1.
Cancer Immunol Res. 5; 29-41 (2017)). Any reduction in checkpoint inhibitor-mediated tumor growth inhibition or response rates caused by the addition of venetoclax would indicate potential antagonism. The panel was composed of syngeneic models of solid tumors: CT26, MC38 (both colorectal carcinoma) and EMT6 (breast cancer). […] Likewise, only modest anti-tumor activity could be observed in these models with venetoclax alone, dosed daily at 50 mg/kg for 14 days (FIG. 3, FIG. 6, FIGS. 12A, 12B, 12C, and 12D). […] Rather, it enhanced their efficacy in certain cases.

NCI-H526 = test: Venetoclax cell killing (CellTiter-Glo); type: cell-based; conditions: Homo sapiens, NCI-H526, 24 h; Lung; 10% FBS; 1 day
Method: (§2) Solid tumor cell lines were obtained from American Type Culture Collection (ATCC, Manassas, Va.) or the National Cancer Institute (NCI) and cultured in humidified incubators at 37° C. (5% CO2) in appropriate media (specified by supplier) supplemented with 10% fetal bovine serum (FBS) or 10% human serum (HS). 24 hours after plating into 96-well or 384-well tissue culture plates, venetoclax was added to cells at various concentrations (typically 0.010 to 10 μM in half-log increments) to perform concentration-response assessments of cell killing. After 1 to 5 days of culture in the presence of venetoclax, cell viability was assessed using CellTiter-Glo® reagent (Promega). IC50 values were determined by non-linear regression analysis of the concentration response data (Table 5 and Table 6).

A549 = test: Venetoclax cell killing (CellTiter-Glo); type: cell-based; conditions: Homo sapiens, A549, 72 h; Lung; 10% FBS; 3 days
Method: as §2

COLO-201 = test: Venetoclax cell killing (CellTiter-Glo); type: cell-based; conditions: Homo sapiens, COLO 201, 120 h; Colorectal; 10% FBS; 5 days
Method: as §2

mouse splenocytes = test: In vitro sensitivity of mouse splenocytes; type: cell-based; conditions: BALB/c and C57BL/6 splenocytes, 24 hours
Method: Mouse splenocytes were plated at a density of 5×10^5 cells per well in a 48-well plate with 30 U/mL IL-2. Cells were cultured for 24 hours and then increasing concentrations of venetoclax were added for an additional 24 hours (DMSO was used as control). Cells were harvested, stained and subjected to flow cytometry analysis with an LSRFortessa™ X-20 instrument (BD Biosciences).
To further explore the mechanism for immune modulation in mice, splenocytes from BALB/c and C57BL/6 mice were treated in vitro with venetoclax for 24 hours. The two types of memory T-cells in mice are central memory (TCM; […]) and effector memory T-cells (TEM; […]). While naïve T-cells (CD62L^+CD44^−) were sensitive to venetoclax, effector memory T-cells were not and, importantly, their proportion increased relative to surviving T-cells with increased concentrations of venetoclax. Central memory T-cells were not affected by venetoclax under these experimental conditions (FIG. 9).

CMV-positive human PBMCs = test: CMV recall assay in the presence of anti-PD-1 antibody; type: cell-based; conditions: 1 μg/mL CMV antigen, day 4
Method: The cytomegalovirus (CMV) recall assay was used assess the functional effects of venetoclax on antigen-experienced immune cells and to evaluate the effect of venetoclax on anti-PD1 immune response. This assay used cytomegalovirus (CMV) antigen to stimulate pre-existing memory T-cells in CMV-positive human PBMCs. Human CMV-positive PBMCs (Cat.No:1001; Lot. No. 3634JY17) and CMV antigen (Cat. No. 1004) were purchased from Astarte Biologics. 2×10^5 CMV-positive PBMCs were stimulated with 1 μg/mL of CMV antigen with or without inhibitors +/−anti-PD-1 (nivolumab) in Roswell Park Memorial Institute (RPMI) media supplemented with 10% fetal bovine serum (FBS) and 1% antibiotics. On day 4, secreted IFNγ was measured by ELISA and the live cells were analyzed using a live dead stain, Zombie Green™ (BioLegend®) using LSRFortessa™ X-20 instrument (BD Biosciences). Venetoclax reduced the percentage of live cells compared to DMSO as single agent or in combination with nivolumab (FIG. 10D).

MC38 tumors [2] = test: MC38 model in immune deficient SCID mice; type: in vivo, mouse
Method: as §1
To further test the direct effects of venetoclax on the immune cells, SCID mice were transplanted with MC38 cells and treated with vehicle or anti-PD-1/PD-L1/venetoclax as single agent and in combinations (FIGS. 12E and 12F).

MC38 tumors [3] = test: MC38 colon carcinoma syngeneic model, immune competent C57BL/6 mice; type: in vivo, mouse; conditions: MC38 in C57BL/6 mice; venetoclax 50 mg/kg/day orally 14 days; antibody 10 mg/kg IP every 4 days, 3 times; day 25

`CC1(C)CCC(CN2CCN(c3ccc(C(=O)NS(=O)(=O)c4ccc(NCC5CCOCC5)c([N+](=O)[O-])c4)c(Oc4cnc5[nH]ccc5c4)c3)CC2)=C(c2ccc(Cl)cc2)C1` [Compound (I), venetoclax] was tested, and the “anti-tumor activity as single agent” value (EMT6 tumors) was “modest activity”, the “in vitro sensitivity (viability)” value [1] was “resistant” and the “in vitro sensitivity (viability)” value ([1]; listed as venetoclax) was “None of these tumor cell lines exhibited sensitivity”. The IC50 (NCI-H526) was greater than 10 µM, the IC50 (A549) was 3.19 µM and the IC50 (COLO-201) was 9.78 µM. The “central memory T-cells” value (mouse splenocytes) was “not affected”, the “sensitivity of naïve T-cells” value (mouse splenocytes) was “sensitive” and the “proportion of effector memory T-cells relative to surviving T-cells” value (mouse splenocytes; increased concentrations) was “increased”. For the same compound, the “IFNγ secretion from antigen specific CMV+ T cells (ELISA)” value (CMV-positive human PBMCs) was “remained comparable to DMSO control”, the “percentage of live cells compared to DMSO” value (CMV-positive human PBMCs) was “reduced” and the “anti-tumor efficacy / tumor growth in SCID mice” value (MC38 tumors [2]) was “did not show anti-tumor efficacy”. The “tumor growth inhibition (TGI)” value (MC38 tumors [3]) was 41%.

Source: patent publication US20190336496A1, “SELECTIVE BCL-2 INHIBITORS IN COMBINATION WITH AN ANTI-PD-1 OR AN ANTI-PD-L1 ANTIBODY FOR THE TREATMENT OF CANCERS” (AbbVie Inc., priority 2018, published 2019)
